Experimental data from ChEMBL document CHEMBL3813635, “Development of new Malt1 inhibitors and probes” (Bioorg Med Chem, 2016).
Activity calls are given as the source filed them. The rule behind the calls is not given here.

Key:
[1] = biological target: T1, Mucosa-associated lymphoid tissue lymphoma translocation protein 1 (Homo sapiens) (UniProt Q9UDY8); test: (§1) Inhibition of recombinant Malt1 (unknown origin) at 10 to 1000 uM preincubated for 1 hr followed by (S)-1-((6-(4-(4-(5,5-Difluoro-3,7-bis(4-methoxyphenyl)-5H-4l4,5l4-dipyrrolo[1,2-c:20,10-f][1,3,2]diazaborinin-10-yl)butyl)-1H-1,2,3-triazol-1-yl)hexanoyl)-L-valyl-L-arginyl)-N-((S)-1-fluoro-6-guanidino-2-oxohexan-3-yl)pyrrolidine-2-carboxamide addition and incubated for 1 hr by SDS-PAGE based competitive activity-based protein profiling assay
T1 sequence (whole entry): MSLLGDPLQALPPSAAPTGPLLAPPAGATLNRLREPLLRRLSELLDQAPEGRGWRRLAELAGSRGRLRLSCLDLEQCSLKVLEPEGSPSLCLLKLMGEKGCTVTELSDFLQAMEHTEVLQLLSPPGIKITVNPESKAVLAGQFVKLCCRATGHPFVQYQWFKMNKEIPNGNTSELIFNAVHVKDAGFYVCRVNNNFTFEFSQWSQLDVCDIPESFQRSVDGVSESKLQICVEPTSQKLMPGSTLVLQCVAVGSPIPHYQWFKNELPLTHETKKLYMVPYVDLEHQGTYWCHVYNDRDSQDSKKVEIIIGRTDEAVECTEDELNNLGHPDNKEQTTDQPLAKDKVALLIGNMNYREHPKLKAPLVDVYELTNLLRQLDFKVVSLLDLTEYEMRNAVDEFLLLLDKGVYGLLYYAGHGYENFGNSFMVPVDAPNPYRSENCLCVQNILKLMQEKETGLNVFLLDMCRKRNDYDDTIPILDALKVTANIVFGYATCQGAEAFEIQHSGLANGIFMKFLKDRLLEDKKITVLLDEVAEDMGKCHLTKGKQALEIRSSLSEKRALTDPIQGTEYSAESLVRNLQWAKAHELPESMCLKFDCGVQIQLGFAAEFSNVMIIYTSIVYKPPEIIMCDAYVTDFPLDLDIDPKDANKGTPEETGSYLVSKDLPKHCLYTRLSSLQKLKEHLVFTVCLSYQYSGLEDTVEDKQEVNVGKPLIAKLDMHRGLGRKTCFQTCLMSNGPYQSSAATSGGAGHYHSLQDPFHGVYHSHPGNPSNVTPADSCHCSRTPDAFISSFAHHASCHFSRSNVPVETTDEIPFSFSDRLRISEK

[2] = biological target: T2, Mucosa-associated lymphoid tissue lymphoma translocation protein 1 (Homo sapiens, UniProt Q9UDY8); test: as §1
T2 sequence (Q9UDY8 whole entry): T1 sequence (whole entry)

[3] = biological target: T1, Mucosa-associated lymphoid tissue lymphoma translocation protein 1 (Homo sapiens); test: as §1, with “at 1” for “at 10”, “to 100” for “to 1000”
[4] = biological target: T2, Mucosa-associated lymphoid tissue lymphoma translocation protein 1; test: as above
[5] = biological target: T1, Mucosa-associated lymphoid tissue lymphoma translocation protein 1 (Homo sapiens); test: Binding affinity to Flag-tagged Malt1 (unknown origin) overexpressed in human Jurkat T cells assessed as protein labeling at 1 uM after 50 mins by Western blot analysis; type: cell-based
Jurkat = test: Binding affinity to Malt1 C/A mutant (unknown origin) overexpressed in human Jurkat T cells assessed as protein labeling at 1 uM after 50 mins by Western blot analysis; type: cell-based
[6] = biological target: T1, Mucosa-associated lymphoid tissue lymphoma translocation protein 1 (Homo sapiens); test: Binding affinity to Malt1 in phorbol 12-myristate 13-acetate/ionomycin stimulated human Jurkat T cells assessed as protein labeling at 1 uM after 50 mins by SDS-PAGE based activity-based protein profiling assay; type: cell-based
[7] = biological target: T1, Mucosa-associated lymphoid tissue lymphoma translocation protein 1 (Homo sapiens); test: Binding affinity to recombinant GST-Malt1 (325 to 760 residues) (unknown origin) assessed as protein labeling at 0.1 to 1 uM after 1 hr by SDS-PAGE based activity-based protein profiling assay
[8] = biological target: T1, Mucosa-associated lymphoid tissue lymphoma translocation protein 1 (Homo sapiens); test: Binding affinity to Malt1 in phorbol 12-myristate 13-acetate/ionomycin stimulated human Jurkat T cells assessed as protein labeling at 3 uM after 50 mins by SDS-PAGE based activity-based protein profiling assay; type: cell-based
[9] = biological target: T1, Mucosa-associated lymphoid tissue lymphoma translocation protein 1 (Homo sapiens); test: Binding affinity to recombinant GST-Malt1 (325 to 760 residues) (unknown origin) assessed as protein labeling at 0.05 to 0.5 uM after 1 hr by SDS-PAGE based activity-based protein profiling assay
[10] = biological target: T1, Mucosa-associated lymphoid tissue lymphoma translocation protein 1 (Homo sapiens); test: Binding affinity to recombinant GST-Malt1 (325 to 760 residues) (unknown origin) assessed as protein labeling at 1 uM after 1 hr by SDS-PAGE based activity-based protein profiling assay
[11] = biological target: T1, Mucosa-associated lymphoid tissue lymphoma translocation protein 1 (Homo sapiens); test: Binding affinity to Malt1 in phorbol 12-myristate 13-acetate/ionomycin stimulated human Jurkat T cells assessed as protein labeling at 1 to 3 uM after 50 mins by SDS-PAGE based activity-based protein profiling assay; type: cell-based

| Structure (SMILES) | pIC50(app) [1] | IC50 [2] [µM] | also measured |
| --- | --- | --- | --- |
| COCCOc1nc(-c2cccc(OC)c2)n(-c2ccc(NC(=O)CCl)cc2)n1 | 3.71 | 194 |  |
| COCCOc1nc(-c2ccc(OC)cc2)n(-c2ccc(NC(=O)CCl)cc2)n1 | 4.35 | 45 |  |
| COCCOc1nc(-c2cccc(C(F)(F)F)c2)n(-c2ccc(NC(=O)CCl)cc2)n1 | 4.03 | 93 |  |
| COCCOc1nc(-c2cccc(C)c2)n(-c2ccc(NC(=O)CCl)cc2)n1 | 3.56 | 278 |  |
| COc1ccc(C2=[N+]3C(=C(CCCCc4cn(CCCCCC(=O)N[C@H](C(=O)N[C@@H](CCCNC(=N)N)C(=O)N5CCC[C@H]5C(=O)N[C@@H](CCCNC(=N)N)C(=O)CF)C(C)C)nn4)c4ccc(-c5ccc(OC)cc5)n4[B-]3(F)F)C=C2)cc1 |  |  | Activity [5]: Active; Activity (Jurkat): inactive; Activity [6]: inactive; Activity [7]: Active; Activity [8]: Active |
| COCCOc1nc(-c2ccc3c(c2)OCO3)n(-c2ccc(NC(=O)CCl)cc2)n1 | 4.06 | 88 |  |
| CN1\C(=C/C=C/C=C/C2=[N+](CCCCCC(=O)NCCOc3nc(-c4ccc(Cl)c(Cl)c4)n(-c4ccc(NC(=O)CCl)cc4)n3)c3ccccc3C2(C)C)C(C)(C)c2ccccc21 |  |  | Activity [5]: Active; Activity (Jurkat): Active; Activity [9]: inactive; Activity [10]: Active; Activity [11]: inactive |
| COCCOc1nc(-c2ccccc2)n(-c2ccc(NC(=O)CCl)cc2)n1 | 4.01 | 98 |  |
| COCCOc1nc(-c2ccc(Cl)c(Cl)c2)n(-c2ccc(NC(=O)CCl)cc2)n1 |  |  | pIC50(app) [3]: 5.11; IC50 [4]: 7.8 µM |
| COCCOc1nc(-c2cccc(F)c2)n(-c2ccc(NC(=O)CCl)cc2)n1 | 4.05 | 88 |  |
| C=CC(=O)Nc1ccc(-n2nc(OCCOC)nc2-c2ccc(Cl)c(Cl)c2)cc1 | 4.47 | 34 |  |
| CC1=CC(C)=[N+]2C1=Cc1ccc(CCC(=O)N[C@@H](CC(C)C)C(=O)N[C@@H](CCCNC(=N)N)C(=O)N[C@@H](CO)C(=O)N[C@@H](CCCNC(=N)N)C(=O)COC(=O)c3c(C)cccc3C)n1[B-]2(F)F |  |  | Activity [5]: Active; Activity (Jurkat): inactive; Activity [10]: Active; Activity [6]: Active |

The remaining compounds from weak to strong by IC50 [2], led by results:

| pIC50(app) [1] | IC50 [2] [µM] | Structure (SMILES) | also measured |
| --- | --- | --- | --- |
| 4.59 | 26 | COCCOc1nc(-c2ccc(F)c(F)c2)n(-c2ccc(NC(=O)CCl)cc2)n1 |  |
| 4.57 | 26 | COCCOc1nc(-c2cccc(Cl)c2)n(-c2ccc(NC(=O)CCl)cc2)n1 |  |
| 4.66 | 22 | COCCOc1nc(-c2ccc(C(F)(F)F)cc2)n(-c2ccc(NC(=O)CCl)cc2)n1 |  |
| 4.66 | 22 | COCCOc1nc(-c2ccc(-c3ccccc3)cc2)n(-c2ccc(NC(=O)CCl)cc2)n1 |  |
| 4.78 | 17 | COCCOc1nc(-c2cccc(Br)c2)n(-c2ccc(NC(=O)CCl)cc2)n1 |  |
| 4.82 | 15 | COCCOc1nc(-c2ccc(C)c(C)c2)n(-c2ccc(NC(=O)CCl)cc2)n1 |  |
| 4.92 | 12 | COCCOc1nc(-c2ccc(OC)c(OC)c2)n(-c2ccc(NC(=O)CCl)cc2)n1 |  |
| 5.05 | 9 | COCCOc1nc(-c2ccc(C)cc2)n(-c2ccc(NC(=O)CCl)cc2)n1 | pIC50(app) [3]: 5.09; IC50 [4]: 8.2 µM |
| 5.17 | 6.8 | COCCOc1nc(-c2ccc(F)cc2)n(-c2ccc(NC(=O)CCl)cc2)n1 | pIC50(app) [3]: 4.99; IC50 [4]: 10 µM |
| 5.81 | 1.6 | COCCOc1nc(-c2ccc(Cl)cc2)n(-c2ccc(NC(=O)CCl)cc2)n1 | pIC50(app) [3]: 5.52; IC50 [4]: 3 µM |
| 5.82 | 1.5 | COCCOc1nc(-c2ccc(Br)cc2)n(-c2ccc(NC(=O)CCl)cc2)n1 | pIC50(app) [3]: 5.68; IC50 [4]: 2.1 µM |
